Values of other authors, collected in patent US4689323A, “Covalently bound heparin--antithrombin-III complex” (Miles Laboratories, Inc., priority 1983, dated 1987).

Legend:
[1] = tested on: plasma antithrombin-III ("AT-III"); conditions: continuous intravenous infusion, thromboembolic patients
[2] = Scientific Protein Labs., porcine intestines

decrease in plasma antithrombin-III levels [1]: about 35%
Substance: heparin sodium
anticoagulant activity of the starting heparin [2]: 167.7 USP units/mg
